We go through eight compounds from ChEMBL document CHEMBL1135134, “Novel phthalimide derivatives, designed as leukotriene D(4) receptor antagonists” (Bioorg Med Chem Lett, 2002).

SMILES strings stand for the structures.

The species named for assay [1] is Cavia porcellus. The assay can be described thus: Inhibitory contractile effect of compound in guinea-pig tracheal strips induced by LTD4 (100 nM) (% contraction, obtained in the vehicle presence 100.0%). It is filed as functional, Trachea.
For assay [2], the species on record is Cavia porcellus. The experiment in a line: Inhibitory contractile effect of compound in guinea-pig tracheal strips induced by LTD4 (100 nM) (% inhibition obtained by comparison with control group). It counts as functional, Trachea.
For assay [3], the species on record is Cavia porcellus. The assay can be described thus: 50% inhibitory concentration on the LTD4 (100 nM) induced contraction of guinea-pig tracheal strip bioassay. It counts as functional. The conditions noted are these: Trachea.
For assay [4], the species on record is Cavia porcellus. The assay can be described thus: Maximum effect on the LTD4 (100 nM) induced contraction of guinea-pig tracheal strips bioassay. As to conditions: Trachea. It is filed as functional.

The term Inhibition denotes the change of the read-out against control, counted positive when it falls. With `CC(Oc1ccc(CCN2C(=O)c3ccccc3C2=O)cc1)C(=O)O` (configuration not stated), in assay [1], the Contraction stood at 91.4%. The Inhibition in assay [2] came out at 8.6%.
Consider `O=C(O)COc1ccc(CCN2C(=O)c3ccccc3C2=O)cc1`, for which the Contraction in assay [1] came out at 101.5%. In addition, the Inhibition in assay [2] is on record as -1.5%.
Broadly, the IC50 is the midpoint of a concentration-inhibition curve. A high value points to lower potency. One may read the Emax as the size of the effect at its maximum, as opposed to the concentration needed. The compound `O=C1c2ccccc2C(=O)N1CCc1ccc(OCCCc2nn[nH]n2)cc1` registered a Contraction in assay [1] of 52.4%. In assay [3], this compound showed an IC50 of 31.2 µM. Besides, in assay [2], the Inhibition amounted to 47.6%. For the same compound, the Emax in assay [4] is 100%.
For `O=C(O)CCCOc1ccc(CCN2C(=O)c3ccccc3C2=O)cc1`, the Contraction in assay [1] is 80.3%. In addition, the Inhibition in assay [2] stood at 19.7%.
For `O=C(O)CCCCOc1ccc(CCN2C(=O)c3ccccc3C2=O)cc1` the same measures were 97.6% and 2.4%.
For `O=C(O)c1ccc(COc2ccc(CCN3C(=O)c4ccccc4C3=O)cc2)cc1` the same measures were 93.7% and 6.3%.
On to `O=C(O)CCCC(=O)Oc1ccc(CCN2C(=O)c3ccccc3C2=O)cc1`, for which the Contraction in assay [1] was 73.9%. Further, the Inhibition in assay [2] worked out at 26.1%.
`COc1cc(C(=O)NS(=O)(=O)c2ccccc2C)ccc1Cc1cn(C)c2ccc(NC(=O)OC3CCCC3)cc12` [ZAFIRLUKAST] yielded an IC50 in assay [3] of 0.00103 µM.
